Marks after values point to notes of the source that are not given here.
Tests used:
Type in all cases: physicochemical
[1] = Viscosity by rheology (temperature ramp, cone-plate rheometer); details: shear rate 60 s^-1
Method: Viscosity is another crucial parameter on the development of a reactive diluent. To obtain an effective reactive diluent, monomers providing a low viscosity need to be obtained. The referred viscosity is preferably between 5 and 100 mPa.s, more preferably between 5 and 50 mPa.s, and even more preferably 5 and 20 mPa.s. The presented viscosities refer to the process temperature which can be between 30-150°C. The viscosity was determined via rheology. Rheology measurements were performed using an Anton Paar MCR 102 rheometer, equipped with a P-PTD 200/GL Peltier glass plate and an H-PTD200 heating hood. For measuring the rheological properties, a temperature ramp experiment was performed from 25-100°C with a heating rate of 0.5°C min^-1, using a CP25 measurement system (cone plate with a 2° angle and 25 mm diameter) at a gap distance of 0.1 mm and with a shear rate of 60 s^-1.

[2] = Volatility: weight loss after 24 hours in oven; details: for weight loss relative to example 1: ratio to weight loss of example 1
Method: Volatility can be assessed from the weight lost after 24 hours, and is preferably below 10%, more preferably below 5% and even more preferable below 1% at the process temperature (between 30 and 150°C). For the determination of the volatility of the compounds 25 mL flasks (Ø 30 mm) with approximately 2 grams of the test compound were placed in a Memmert oven at 50 °C and 80°C for 24 hours and the volatility was determined as the weight loss in percent (w/w).

[3] = Photo-DSC photo-reactivity study; details: 50°C, 365 nm, 1% w/w TPO-L; for t95%: time when 95% of the total heat of polymerization has evolved; for tmax: time when maximum heat evolution was reached
Method: Photo-DSC (differential scanning calorimetry) studies were performed using a Netzsch DSC 204 F1 containing an autosampler and coupled to an intracooler IC85 cooling device. The system was connected to an Omnicure LX500 controller with a 365 nm LED and the power intensity was set on the sample at 17 mW cm^-2 (measured using a Thorlabs SMC100 powermeter and the corresponding S310C thermal power head). The test samples were mixed in a vortex mixer for 3 minutes with 1% w/w of TPO-L (a commercially available photoinitiator) and then […] were transferred to an aluminum crucible without lid. All experiments were conducted under Nitrogen atmosphere (flow = 20 mL/min) at 50°C and the samples were irradiated for 5 minutes. Triplicate DSC measurements were performed for each example. The measured heat of polymerization (ΔH) was calculated by integrating the area under the curve from 0 to 200 s.
Here, tmax is the time when maximum heat evolution was reached and t95% corresponds to the point when 95% of the total heat of polymerization has evolved (0 s corresponds to the moment when light is triggered). The double bound conversion (DBC) was calculated from the experimentally obtained heat of polymerization and the theoretical polymerization enthalpy indicated in the literature (56 kJ mol^-1 for methacrylates).

[4] = Dynamic Mechanical Analysis (DMA) of printed specimens; details: increasing the percentage of reactive diluent from 10 to 30% in X-851-1066
Method: For the (thermo)mechanical tests and water uptake tests, Example 1 or Reference 2 were mixed with two commercially available oligomers, namely Ebecryl 8811 (Allnex) a difunctional aliphatic urethane acrylate and BR-952 (Bomar) a difunctional aliphatic urethane methacrylate in different ratios.
For the sample preparation a speedmixer (DAC 150.1 FVZ-K, Hauschild) was used. 70 g of the total formulation was mixed at 3000 rpm for 10 minutes. After that the resin composition was degassed until no air bubbles were released.
Test specimens were printed on a Cubicure Caligma 200 DLP 405 nm. Light Pulse Duration was set to 6000, corresponding to 1.5 s total exposure time, and print speed to 20 mm/s. Processing temperature was 35°C, due to the high volatility of Reference 2.
Dynamic Mechanical Analysis (DMA) of the printed specimens measuring 50x5x1 mm^3 was performed using a DMA8000 Dynamic Mechanical Analyzer from PerkinElmer. The measurements were performed using the tension mode, from 30-160 °C with a heating rate of 2°C min^-1 and frequency of 1 Hz. In these experiments the evolution of the storage modulus G' with increasing temperature was observed and the Tg was determined (maximum value for tan δ).

Row | Compound | Viscosity ([1]; 25°C (room temperature)) [mPa.s] | Viscosity ([1]; 40°C) [mPa.s] | Viscosity ([1]; 50°C) [mPa.s] | Viscosity ([1]; 70°C) [mPa.s] | Viscosity ([1]; 90°C) [mPa.s] | Viscosity ([1]; 100°C) [mPa.s] | Volatility [weight loss %] ([2]; 50°C) [%] | Volatility [weight loss %] ([2]; 80°C) | t95% [3] [s] | tmax [3] [s] | decrease of Tg of the photopolymer [4] [%] | Viscosity ([1]; 25°C (room temperature), listed as Example 4) [mPa.s] | Viscosity ([1]; 25°C (room temperature), listed as Example 5) [mPa.s] | Viscosity ([1]; 40°C, listed as example 5) [mPa.s] | weight loss relative to example 1 ([2]; 80°C)
1 | C=C(C)C(=O)OC1CCCCC1O (stereo not drawn) [Ex1, 2-hydroxycyclohexyl methacrylate] | 53 | 26 | 16 | 7 | 4 | 3 | 5 | 20% | 43 | 14 | 4 |  |  |  | 
2 | C=C(C)C(=O)OC1CCCCC1OC(=O)C1CCCCC1 (stereo not drawn) [Ex2, 2-(cyclohexylcarbonyloxy)cyclohexyl methacrylate] | 27 | 17 | 12 | 7 | 4 | 4 | 1 | 14% | 66 | 17 |  |  |  |  | 
3 | C=C(C)C(=O)OC1CCCCC1OC(=O)C(C)(C)C (stereo not drawn) [Ex3, 2-(isopropenylcarbonyloxy)cyclohexyl 2,2-dimethylpropionate] | 13 | 9 | 6 | 4 | 2 | 2 | 2.7 | 21% | 87 | 51 |  |  |  |  | 
4 | C=C(C)C(=O)OC1CCCCC1OC(=O)Cc1ccccc1 (stereo not drawn) [Ex4, 2-(benzylcarbonyloxy)cyclohexyl methacrylate] | 110 | 53 | 31 | 13 | 8 | 7 | 0.09 | 17% | 174 | 26 |  | 174 |  |  | 
5 | C=C(C)C(=O)OC1CCCCC1OC(=O)C(CC)CCCC (stereo not drawn) [Ex5, 2-(isopropenylcarbonyloxy)cyclohexyl 2-ethylhexanoate] | 174 | 101 | 65 | 34 | 20 | 19 | 0.6 | 1.9** % |  |  |  |  | 110 | 53 | 
6 | C=C(C)C(=O)OCCO [Ref2, 2-hydroxyethylmethacrylate, reference compound] | 6 | 4 | 3 | 2 | 1 | 1 | 34 | 89% | 65 | 43 | 13 |  |  |  | more than 4 times
7 | Isobornyl methacrylate [Ref1, reference compound] | 8 | 6 | 4 | 3 | 2 | 2 | 12 | 65% | 67 | 36 |  |  |  |  | 3 times

Source: patent EP4549150A1, “RESIN COMPOSITION FOR THREE-DIMENSIONAL PRINTING” (Cubicure GmbH, priority 2023, dated 2025)
